Test results reported in patent US10760052B2, “Method of inhibiting tau phosphorylation” (priority 2012, dated 2020).
Read-outs that look alike come from different tables or passages of the source.

What was measured:
[1] = target: T1, α7nAChR-FLNA complex (Homo sapiens, UniProt P36544); type: cell-based
T1 construct: In postmortem control frontocortical tissue, Aβ42-induced FLNA recruitment to α7nAChRs was mimicked; from tissue; host or cells: postmortem frontal cortex of control subjects
Protocol: Incubation continued for 1 hour in the dark. […] The reaction was terminated by the addition of 1.5 ml of ice-cold Ca^2+-free K-R, and slices were collected by a brief centrifugation.
Solubilized immunoprecipitates derived from co-immunoprecipitation assays were separated by either 7.5 or 10% SDS-PAGE and then electrophoretically transferred to nitrocellulose membranes. The membranes were washed with PBS and blocked overnight (about 18 hours) at 4° C. with 10% milk in PBS with 0.1% Tween®-20 (PBST). Following three 5-minute washes with 0.1% PBST, the membranes were incubated at room temperature for 2 hours with antibody of choice at 1:500-1:1,000 dilutions. After three 2-minute washes in 0.1% PBST, membranes were incubated for 1 hour with anti-species IgG-HRP (1:5,000 dilution) and washed with 0.1% PBST three times, 2-minutes each. Immunoreactivity was visualized by reacting with chemiluminescent reagent (Pierce-ENDOGEN) for exactly 5 minutes and immediately exposing to X-ray film. Specific bands were quantified by densitometric scanning (GS-800 calibrated densitometer, Bio-Rad Laboratories).

[2] = target: T2, α7nAChR-FLNA complex (Rattus norvegicus, UniProt A0A8I5ZV49); assay: Aβ42-induced α7nAChR-FLNA association in rat frontal cortical synaptosomes (co-immunoprecipitation/Western blot); type: cell-based; settings: 1 or 10 nM compound, simultaneously or 10 minutes prior to Aβ42 (0.1 μM)
T2 construct: from tissue; host or cells: rat frontal cortex synaptosomes
Description: The α7nAChR-FLNA complexes in the solubilized synaptosomes were immunoprecipitated with immobilized anti-FLNA and the α7nAChR and FLNA levels in the anti-FLNA immunoprecipitates determined by Western blotting (FIG. 2A) and quantified by densitometry (FIG. 2B). n=3. […] The letter designation “M” that accompanies many of the “C-series” compounds is omitted from FIG. 2, the remaining figures and most discussions of the figures and compounds hereinafter for ease in expression. Structural formulas of the compounds used in this and the other figures are provided hereinafter. […]

[3] = target: VAKGL pentapeptide of filamin A (FLNA) of SEQ ID NO: 1 (Homo sapiens, UniProt P21333); assay: FITC-NLX-based FLNA screening assay (inhibition of FITC-naloxone binding to Bn-VAKGL on streptavidin plates); settings: for Percent Binding Inhibition (FITC-NLX binding): 10 nM FITC-NLX; for Binding to FLNA (in words): preliminary study
[4] = target: T3, mu opiate receptor (MOR) (Rattus norvegicus, UniProt P33535); type: biochemical; settings: for MOR agonist activity ([35S]GTPγS binding), compound as agonist / MOR agonist activity (in words): preliminary study; for MOR agonist activity ([35S]GTPγS binding), compound as agonist: average of two runs
T3 construct: from tissue; host or cells: striatum (membrane preparation)

[5] = test system: tau protein phosphorylated at S202, T231 and T181; assay: Aβ42-induced tau phosphorylation in rat frontal cortical synaptosomes; type: cell-based; settings: 1 or 10 nM compound, simultaneously or 10-minute pretreatment; Aβ42 0.1 μM
Protocol: FIG. 4 in four panels as FIGS. 4A-4D, illustrates that FLNA-binding compounds reduce tau phosphorylation at all three phosphorylation sites. […] The three phosphoepitopes of tau were detected in immunoprecipitates using specific antibodies. […] Immunoprecipitates were determined by Western blotting (FIGS. 4A-4C) and quantified by densitometry (FIG. 4D).
FIG. 42, also in two panels, FIGS. 42A and 42B, illustrates that FLNA-binding compounds reduce tau phosphorylation at all three phosphorylation sites using the compounds and concentrations of FIG. 41 using immunoprecipitation and Western blotting. […] The three phosphoepitopes of tau were detected in immunoprecipitates using specific antibodies.
FIG. 44, also in two panels, FIG. 44A and FIG. 44B, illustrates that FLNA-binding compounds reduce tau phosphorylation at all three phosphorylation sites using the compounds and concentrations of FIG. 43 using immunoprecipitation and Western blotting. […] The three phosphoepitopes of tau were detected in immunoprecipitates using specific antibodies. Aβ42 strongly promotes tau phosphorylation at all three sites.
FIG. 46, also in two panels, FIG. 46A and FIG. 46B, illustrates that FLNA-binding compounds reduce tau phosphorylation at all three phosphorylation sites using the compounds and concentrations of FIG. 45 using immunoprecipitation and Western blotting. […] The three phosphoepitopes of tau were detected in immunoprecipitates using specific antibodies. Aβ42 strongly promotes tau phosphorylation at all three sites.
The three primary phosphorylation sites on tau protein were examined for their phosphorylation levels compared to total tau protein content. Tau, phosphorylated at these three sites, is a constituent of NFTs. Consistent with effects on FLNA-α7nAChR association, and ERK2 activation, all of the FLNA-binding compounds assayed, with 10 minute pre-incubation, decreased Aβ42-induced phosphorylation of tau at all three sites (FIG. 4).

[6] = 1 μM agent, relative to 0.1 μM Aβ42

T2 sequence (A0A8I5ZV49 entry or part of it, one chain of several): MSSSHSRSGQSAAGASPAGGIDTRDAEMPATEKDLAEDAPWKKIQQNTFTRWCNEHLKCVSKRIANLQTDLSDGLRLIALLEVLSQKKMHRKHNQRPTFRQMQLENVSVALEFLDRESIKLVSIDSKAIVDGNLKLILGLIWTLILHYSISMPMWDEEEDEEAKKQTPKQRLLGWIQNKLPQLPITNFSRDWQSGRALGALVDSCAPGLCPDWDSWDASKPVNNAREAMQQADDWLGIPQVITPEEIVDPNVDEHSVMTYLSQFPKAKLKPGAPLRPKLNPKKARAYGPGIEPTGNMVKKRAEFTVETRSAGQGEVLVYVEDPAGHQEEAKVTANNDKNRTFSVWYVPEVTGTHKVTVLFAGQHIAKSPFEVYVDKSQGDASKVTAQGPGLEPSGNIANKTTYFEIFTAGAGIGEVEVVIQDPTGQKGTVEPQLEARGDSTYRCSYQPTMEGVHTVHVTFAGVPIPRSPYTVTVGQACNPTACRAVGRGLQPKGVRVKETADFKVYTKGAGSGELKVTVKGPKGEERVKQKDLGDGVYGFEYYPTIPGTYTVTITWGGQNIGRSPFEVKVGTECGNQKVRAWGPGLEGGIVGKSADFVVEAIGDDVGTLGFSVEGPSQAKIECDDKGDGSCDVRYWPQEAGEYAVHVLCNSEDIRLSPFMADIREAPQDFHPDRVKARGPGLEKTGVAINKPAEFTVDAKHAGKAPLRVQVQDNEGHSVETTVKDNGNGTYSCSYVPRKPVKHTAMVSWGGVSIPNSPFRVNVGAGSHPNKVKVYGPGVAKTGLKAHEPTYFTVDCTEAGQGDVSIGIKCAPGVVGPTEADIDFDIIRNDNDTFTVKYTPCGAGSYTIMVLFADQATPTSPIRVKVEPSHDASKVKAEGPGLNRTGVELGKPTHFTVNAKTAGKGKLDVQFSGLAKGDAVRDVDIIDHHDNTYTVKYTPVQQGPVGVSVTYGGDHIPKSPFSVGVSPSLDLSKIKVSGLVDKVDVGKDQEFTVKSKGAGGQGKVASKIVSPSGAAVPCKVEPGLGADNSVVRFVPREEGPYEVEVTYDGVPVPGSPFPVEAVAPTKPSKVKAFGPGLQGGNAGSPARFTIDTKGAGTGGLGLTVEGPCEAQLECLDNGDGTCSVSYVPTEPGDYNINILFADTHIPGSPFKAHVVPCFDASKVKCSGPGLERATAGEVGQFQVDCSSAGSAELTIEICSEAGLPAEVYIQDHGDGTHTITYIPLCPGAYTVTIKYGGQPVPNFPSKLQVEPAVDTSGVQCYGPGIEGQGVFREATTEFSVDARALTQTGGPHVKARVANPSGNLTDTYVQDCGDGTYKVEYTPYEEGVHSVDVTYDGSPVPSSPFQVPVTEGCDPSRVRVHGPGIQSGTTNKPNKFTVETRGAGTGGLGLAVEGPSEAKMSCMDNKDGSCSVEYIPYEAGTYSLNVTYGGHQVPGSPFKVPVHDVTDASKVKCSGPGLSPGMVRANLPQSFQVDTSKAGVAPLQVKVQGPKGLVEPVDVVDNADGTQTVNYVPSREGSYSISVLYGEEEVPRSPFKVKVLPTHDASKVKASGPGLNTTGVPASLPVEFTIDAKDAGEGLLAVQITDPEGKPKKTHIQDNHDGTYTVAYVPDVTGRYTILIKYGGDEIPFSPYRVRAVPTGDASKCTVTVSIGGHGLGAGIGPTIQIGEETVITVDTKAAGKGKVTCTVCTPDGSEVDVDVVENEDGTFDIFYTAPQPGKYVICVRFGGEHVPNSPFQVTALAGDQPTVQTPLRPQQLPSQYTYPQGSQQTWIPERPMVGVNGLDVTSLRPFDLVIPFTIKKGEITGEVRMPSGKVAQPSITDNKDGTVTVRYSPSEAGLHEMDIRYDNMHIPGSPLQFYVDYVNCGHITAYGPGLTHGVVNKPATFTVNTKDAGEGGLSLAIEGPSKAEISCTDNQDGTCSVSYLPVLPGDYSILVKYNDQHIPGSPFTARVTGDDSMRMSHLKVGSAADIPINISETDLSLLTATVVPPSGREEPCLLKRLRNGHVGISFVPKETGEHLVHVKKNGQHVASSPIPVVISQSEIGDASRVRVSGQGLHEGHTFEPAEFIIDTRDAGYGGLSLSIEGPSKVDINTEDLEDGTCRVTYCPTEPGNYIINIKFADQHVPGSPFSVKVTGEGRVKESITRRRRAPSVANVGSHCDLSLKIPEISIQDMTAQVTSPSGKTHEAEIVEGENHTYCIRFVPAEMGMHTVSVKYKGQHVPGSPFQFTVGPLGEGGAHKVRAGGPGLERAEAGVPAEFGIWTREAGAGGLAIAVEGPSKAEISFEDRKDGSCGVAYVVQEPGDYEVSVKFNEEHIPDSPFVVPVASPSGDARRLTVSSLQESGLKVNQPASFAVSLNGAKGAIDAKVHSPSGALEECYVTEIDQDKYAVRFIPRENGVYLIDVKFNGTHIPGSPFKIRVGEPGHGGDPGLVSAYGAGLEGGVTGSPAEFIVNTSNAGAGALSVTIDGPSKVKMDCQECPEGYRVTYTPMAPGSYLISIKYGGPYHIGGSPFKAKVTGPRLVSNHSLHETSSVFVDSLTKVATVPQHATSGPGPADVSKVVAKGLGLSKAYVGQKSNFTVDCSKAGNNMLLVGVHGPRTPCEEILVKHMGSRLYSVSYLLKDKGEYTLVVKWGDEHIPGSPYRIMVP
T1 sequence (P36544 23-502, one chain of several): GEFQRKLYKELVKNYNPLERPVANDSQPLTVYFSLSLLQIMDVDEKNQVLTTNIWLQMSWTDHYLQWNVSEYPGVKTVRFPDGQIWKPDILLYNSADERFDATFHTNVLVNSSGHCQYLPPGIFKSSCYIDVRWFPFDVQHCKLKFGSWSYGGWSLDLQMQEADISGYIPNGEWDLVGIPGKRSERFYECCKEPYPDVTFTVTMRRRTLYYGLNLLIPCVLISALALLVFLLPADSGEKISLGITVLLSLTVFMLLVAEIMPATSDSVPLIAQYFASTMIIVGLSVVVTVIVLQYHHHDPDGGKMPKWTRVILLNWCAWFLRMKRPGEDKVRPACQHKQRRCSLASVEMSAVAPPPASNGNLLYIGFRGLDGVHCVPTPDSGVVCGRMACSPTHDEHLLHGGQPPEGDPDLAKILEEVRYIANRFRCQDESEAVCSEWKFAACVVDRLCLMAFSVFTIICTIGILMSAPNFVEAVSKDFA
T3 sequence (P33535 whole entry): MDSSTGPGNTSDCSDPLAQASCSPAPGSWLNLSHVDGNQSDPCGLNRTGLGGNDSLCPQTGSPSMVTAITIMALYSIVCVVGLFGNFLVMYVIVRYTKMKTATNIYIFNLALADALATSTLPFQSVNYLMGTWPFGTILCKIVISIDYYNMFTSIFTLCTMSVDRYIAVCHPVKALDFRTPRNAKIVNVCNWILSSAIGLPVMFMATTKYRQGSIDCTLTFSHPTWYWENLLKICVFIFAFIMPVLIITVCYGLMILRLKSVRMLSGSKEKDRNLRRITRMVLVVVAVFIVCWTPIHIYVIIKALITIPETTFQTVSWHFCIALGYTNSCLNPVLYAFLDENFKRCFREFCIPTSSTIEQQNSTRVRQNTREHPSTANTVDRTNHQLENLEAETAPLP

## O=C(N[C@H]1CN2CCC1CC2)c1ccc(Cl)cc1 [PNU282987]
[1]
  Aβ42 effect, %: 8.9 ± 3.9%
  FLNA/α7nAChR ratio: 0.12 ± 0.02
  FLNA/α7nAChR ratio (stimulation vs vehicle, %): (87.1 ± 37.9) %

## Cc1ccc(S(=O)(=O)N2CCOC23CCN(CC2CC2)CC3)cc1 [Compound C0134]
[2]
  α7nAChR-FLNA association (ratio α7nAChR/FLNA): statistically different from Aβ42 alone

## CC(=O)c1ccc(S(=O)(=O)N2CC(CN(C)C)OC23CCN(C)CC3)cc1 (stereo not drawn) [Compound C0108]
[2]
  α7nAChR-FLNA association (ratio α7nAChR/FLNA): reduce α7nAChR-FLNA association

## CC(=O)c1ccc(S(=O)(=O)N2CCC3(CC2)NC(=O)CO3)cc1 [Compound C0087]
[2]
  α7nAChR-FLNA association (ratio α7nAChR/FLNA): reduce α7nAChR-FLNA association

## COc1ccc2c3c1O[C@H]1C[C@@H](O)C=C[C@@]31CCN(C)C2 [Galantamine, galantamine]
[1]; 1 μM agent
  FLNA/α7nAChR ratio (stimulation vs vehicle, %): (17.1 ± 14.6) %
[1]; [6]
  Aβ42 effect, %: 1.7 ± 1.5%

## CC1CCC(C(C)C)C(OCC(O)CN2CCc3ccccc32)C1 (stereo not drawn) [Compound A0065]
[3]; 0.01 μM FLNA-binding compound
  Percent Binding Inhibition (FITC-NLX binding): 38.7%
[3]; 0.1 μM FLNA-binding compound
  Percent Binding Inhibition (FITC-NLX binding): 50.0%
[3]; 1 μM FLNA-binding compound
  Percent Binding Inhibition (FITC-NLX binding): 50.8%
[4]
  % DAMGO (0.1 μM): 126.6%
  % DAMGO (1 μM): 115.7%
  % DAMGO + BFNA: 112.5%
[4]; [35S]GTPγS binding to Gαo in striatal membranes, compound 0.1 μM
  Concentration of FLNA-Binding Compound as Agonist 0.1 μM: 197.6%
[4]; [35S]GTPγS binding to Gαo in striatal membranes, compound 1 μM
  Concentration of FLNA-Binding Compound as Agonist 1 μM: 266.8%
[4]; [35S]GTPγS binding to Gαo in striatal membranes, compound 1 μM plus 1 μM β-funaltrexamine (MOR antagonist)
  Concentration of FLNA-Binding Compound as Agonist 1 μM + BFNA: 44.9%

## O=C1CNC2(CCN(C(=S)Nc3ccccc3)CC2)N1Cc1ccccc1 [Compound A]
[5]
  Aβ42-induced tau phosphorylation at S202, T231 and T181: reduced tau phosphorylation with simultaneous administration at 1 nM
[2]
  α7nAChR-FLNA association (ratio α7nAChR/FLNA): statistically different from Aβ42 alone

## Cc1ccc(S(=O)(=O)N2CCOC23CCN(CC2CCC2)CC3)cc1 [Compound 9]
[3]
  Binding to FLNA (in words): bind well to FLNA
[4]; 0.1 μM
  MOR agonist activity ([35S]GTPγS binding), compound as agonist: 156.6%
[4]; 1 μM + βNFA
  MOR agonist activity ([35S]GTPγS binding), compound as agonist: 56.6%
[4]; 1 μM
  MOR agonist activity ([35S]GTPγS binding), compound as agonist: 197.2%
[4]
  MOR agonist activity (in words): MOR agonists

## O=C1CNC2(CCN(CC3CC3)CC2)N1Cc1ccccc1 [Compound C0124]
[5]
  Aβ42-induced tau phosphorylation at S202, T231 and T181: reduced this phosphorylation at both concentrations
[2]
  α7nAChR-FLNA association (ratio α7nAChR/FLNA): reduce α7nAChR-FLNA association

## CN1CCCC1c1cccnc1 (stereo not drawn) [Nicotine, nicotine]
[1]
  Aβ42 effect, %: 11.0 ± 3.2%
  FLNA/α7nAChR ratio: 0.13 ± 0.02
  FLNA/α7nAChR ratio (stimulation vs vehicle, %): (107.7 ± 31.4) %

## C=CCN1CCC2(CC1)OCCN2S(=O)(=O)c1ccc(C)cc1 [Compound 10]
[3]
  Binding to FLNA (in words): bind well to FLNA
[4]; 0.1 μM
  MOR agonist activity ([35S]GTPγS binding), compound as agonist: 163.1%
[4]; 1 μM + βNFA
  MOR agonist activity ([35S]GTPγS binding), compound as agonist: 60.4%
[4]; 1 μM
  MOR agonist activity ([35S]GTPγS binding), compound as agonist: 191.8%
[4]
  MOR agonist activity (in words): MOR agonists

## CCN1C[C@]2(COC(=O)c3ccccc3N3C(=O)C[C@H](C)C3=O)CC[C@H](OC)[C@@]34[C@@H]5C[C@H]6[C@H](OC)[C@@H]5[C@](O)(C[C@@H]6OC)[C@@](O)([C@@H](OC)[C@H]23)[C@@H]14 [Methyllycaconitine, methyllycaconitine]
[1]
  Aβ42 effect, %: 2.0 ± 1.2%
  FLNA recruitment to α7nAChRs (in words): showed no effect
  FLNA/α7nAChR ratio: 0.08 ± 0.02
  FLNA/α7nAChR ratio (stimulation vs vehicle, %): (19.8 ± 12.2) %

## O=C(Nc1ccccc1)N1CCC2(CC1)NCC(=O)N2Cc1ccccc1 [Compound C]
[5]
  Aβ42-induced tau phosphorylation at S202, T231 and T181: did not provide a statistically significant result at two phosphorylation positions when simultaneously administered
[2]
  α7nAChR-FLNA association (ratio α7nAChR/FLNA): statistically different from Aβ42 alone

## O=C1CNC2(CCN(C(=S)Nc3cccnc3)CC2)N1Cc1ccccc1 [Compound B]
[2]
  α7nAChR-FLNA association (ratio α7nAChR/FLNA): statistically different from Aβ42 alone

## CC12CC3CC(C)(C1)CC(N)(C3)C2 [Memantine, memantine]
[1]; 1 μM agent
  FLNA/α7nAChR ratio (stimulation vs vehicle, %): (225.9 ± 38.5) %
[1]; 1 μM agent, postmortem control frontocortical tissue
  FLNA/α7nAChR ratio: 0.21 ± 0.03
[1]; [6]
  Aβ42 effect, %: 23.0 ± 3.9%
[1]; postmortem control frontocortical tissue
  FLNA recruitment to α7nAChRs (in words): elicited the recruitment of FLNA to α7nAChRs
